For this experiment, the system named is CD34^+ cells. Briefly: BrdU incorporation into CD34+ cells (cell proliferation). It is filed as cell-based, human. Conditions: peptide 2 nM, cord blood CD34+ cells. The text has this:
Cell Source: UCB was collected, following informed consent of the parents and with the approval of the Sourasky Medical Center Ethics Committee, as previously described [Grisaru et al. (1999a) Am. J. Obstet. Gynecol, 180, 1240–1243]. Following 1:1 (v/v) dilution in Iscove's modified Dulbecco medium (IMDM, Beit Haemek, Israel), mononuclear cells were separated using 3% gelatin (Difco, Detroit, Mich.) and Ficoll-Hypaque gradients (<1.077 g/ml; Pharmacia, Uppsala, Sweden) [Pick et al. (1998) Br. J. Haematol. 103, 639–50]. CD34^+ cells were enriched using CD34 immunoglobulin-coated magnetic beads (CD34 progenitor cell selection system, Dynal, Norway).CD34^+ cells analysis was performed by flow cytometry (Becton Dickinson Immunocytochemistry System Inc., San Jose, Calif.), using CD34-PE (Becton Dickinson Immunocytometry System, Inc.) and CD45-FITC (Dako, Glostrup, Denmark) monoclonal antibodies. […] Liquid Cultures: UCB CD34^+ cells were set for liquid cultures at a concentration of 10^5/mL in IMDM, containing 10% autologous plasma, 2 mM L-glutamine (Sigma Chemical Co., St Louis, Mo.), penicillin ([…]), streptomycin ([…]), amphotericin B (2×10^−5 M) (Sigma Chemical Co.), and heparin (20 IU/mL, Gibco, Grand Island, N.Y.), all in a fully humidified atmosphere at 37° C. and 5% CO2. The following elements were added where noted: • 1. Hematopoietic growth factors: Interleukin 3 (IL3, 5 ng/mL, Immunex, Seattle, Wash.), interleukin 6 (IL6, 50 ng/mL, R&D Systems, Minneapolis, Minn.), TPO (1 ng/mL, R&D Systems), stem cell factor (SCF, 10 ng/mL, R&D Systems), FLT-3 ligand (FLT3, 50 ng/mL, R&D Systems), granulocyte-macrophage colony stimulating factor (GM-CSF, 50 ng/mL, Biogenesis Ltd, Bournemouth, UK) and combinations of the above, for 24 hr to 28 days (supplemented every 4 days). • 2. […] AChE C-terminal peptides: The following C-terminal peptides of the AChE synaptic (ASP, also denoted SEQ ID: No. 2) and readthrough (ARP, also denoted SEQ ID: No. 1) isoforms were synthesized using a 433A peptide synthesizer (PE Applied Biosystems, Inc., Norwalk, Conn.). • ASP: 1-[…]-40, also denoted as SEQ ID: No. 2. • ARP: 1-[…]-26, also denoted as SEQ ID: No. 1.
[…] Twenty-eight day liquid cultures were sampled every 6–8 days for viable cell counting (using trypan blue dye exclusion), cell phenotyping (CD34^+, CD33^+ and CD41^+ quantification using flow cytometry, with CD34-PE, CD33-FITC (Immunotech/Coulter, Hialeah, Fla.), CD41-FITC (Immunoquality Products, Groningen, Netherlands) and CD45-FITC monoclonal antibodies), and growth of progenitor colony (granulocyte-macrophage and megakaryocytic), using previously described techniques (Pick et al. (1998) id ibid.). […]
In general terms: Dividing cells build labelled thymidine or BrdU into new DNA.

Turning to “ASP (DTLDEAERQWKAEFHRWSSYMVHWKNQFDHYSKQDRCSDL)”, the BrdU incorporation values reads like this: (16 hrs post-plating) 0.095 ± 0.004; (24 hrs post-plating) 0.182 ± 0.018; (36 hrs post-plating) 0.260 ± 0.022.

Source of the values: patent US7067486B2, “Acetylcholinesterase-derived peptides and uses thereof” (priority 1999, dated 2006).
